Assay results from US8232406B2, “c-MET protein kinase inhibitors” (Vertex Pharmaceuticals Incorporated, priority 2006, dated 2012).

Target: c-MET (Homo sapiens, UniProt P08581)
Test: Ki determination for the inhibition of c-MET (standard radiometric 33P-ATP kinase assay, polyE4Y substrate)
Format: biochemical
Conditions: 1.0 nM c-Met, 35 μM ATP, 0.5 mg/mL polyE4Y, 20 min; competitive tight-binding fit
Method: Ki Determination for the Inhibition of c-MET
Compounds of the invention were screened for their ability to inhibit c-MET kinase activity using a standard radiometric assay. Briefly, in this kinase assay the transfer of the terminal ^33P-phosphate in ^33P-ATP to substrate polyE4Y is interrogated. The assay was carried out in 96-well plates to a final volume of 100 μL per well containing 1.0 nM c-Met, 100 mM HEPES (pH 7.5), 10 mM MgCl2, 25 mM NaCl, 0.01% BSA, 1 mM DTT, 0.5 mg/mL polyE4Y, and 35 μM ATP. Accordingly, compounds of the invention were dissolved in DMSO to make 10 mM initial stock solutions. Serial dilutions in DMSO were then made to obtain the final solutions for the assay. A 1.5 μL aliquot of DMSO or inhibitor in DMSO was added to each well. The reaction was initiated by the addition of ^33P-ATP and polyE4Y (obtained from Sigma). After 20 min, the reaction was quenched with 50 μL of 30% trichloroacetic acid (TCA) containing 4 mM ATP. The reaction mixture was transferred to the 0.66 mm GF filter plates (Corning) and washed three times with 5% TCA. Following the addition of 50 μL of Ultimate Gold™ high efficiency scintillant (Packard Bioscience), the samples were counted in a Packard TopCount NXT Microplate Scintillation and Luminescence Counter (Packard BioScience). The Ki values were calculated using Microsoft Excel Solver macros to fit the data to the kinetic model for competitive tight-binding inhibition.

Chain of c-MET (P08581 25-1390): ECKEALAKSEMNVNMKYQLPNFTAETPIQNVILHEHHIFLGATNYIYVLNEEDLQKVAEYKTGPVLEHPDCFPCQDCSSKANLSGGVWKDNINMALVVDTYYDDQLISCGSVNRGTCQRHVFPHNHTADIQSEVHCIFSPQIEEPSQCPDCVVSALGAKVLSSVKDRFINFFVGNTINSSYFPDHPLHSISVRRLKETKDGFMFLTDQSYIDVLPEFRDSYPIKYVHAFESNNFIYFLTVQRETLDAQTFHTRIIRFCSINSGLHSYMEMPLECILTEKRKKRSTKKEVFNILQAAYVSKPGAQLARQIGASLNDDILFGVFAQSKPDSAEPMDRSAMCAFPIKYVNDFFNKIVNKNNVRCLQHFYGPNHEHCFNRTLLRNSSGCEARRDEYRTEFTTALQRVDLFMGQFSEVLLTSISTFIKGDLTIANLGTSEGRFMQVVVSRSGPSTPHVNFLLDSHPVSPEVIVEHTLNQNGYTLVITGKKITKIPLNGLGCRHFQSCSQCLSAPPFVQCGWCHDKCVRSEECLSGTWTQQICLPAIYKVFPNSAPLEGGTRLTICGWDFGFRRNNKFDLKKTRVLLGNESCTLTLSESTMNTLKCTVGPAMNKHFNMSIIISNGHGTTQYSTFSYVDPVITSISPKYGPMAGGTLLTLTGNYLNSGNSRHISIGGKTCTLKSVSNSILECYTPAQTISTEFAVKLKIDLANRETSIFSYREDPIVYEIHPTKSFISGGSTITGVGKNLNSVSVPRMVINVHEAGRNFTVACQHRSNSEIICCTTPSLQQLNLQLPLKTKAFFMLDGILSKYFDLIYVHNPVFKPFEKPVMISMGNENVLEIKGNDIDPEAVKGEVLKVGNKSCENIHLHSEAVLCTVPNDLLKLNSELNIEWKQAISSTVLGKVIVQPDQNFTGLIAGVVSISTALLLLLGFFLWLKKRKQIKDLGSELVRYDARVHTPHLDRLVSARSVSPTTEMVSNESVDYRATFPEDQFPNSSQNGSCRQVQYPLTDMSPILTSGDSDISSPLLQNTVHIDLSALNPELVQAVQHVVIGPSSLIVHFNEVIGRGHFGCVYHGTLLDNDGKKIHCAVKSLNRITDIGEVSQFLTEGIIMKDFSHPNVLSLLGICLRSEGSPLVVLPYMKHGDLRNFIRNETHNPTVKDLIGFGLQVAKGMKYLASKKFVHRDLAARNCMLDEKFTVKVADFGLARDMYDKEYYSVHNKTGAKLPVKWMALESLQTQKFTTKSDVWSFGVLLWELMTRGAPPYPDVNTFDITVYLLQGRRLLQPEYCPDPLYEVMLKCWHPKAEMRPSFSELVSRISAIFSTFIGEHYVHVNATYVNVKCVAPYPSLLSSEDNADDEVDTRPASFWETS

| Structure (SMILES) | Ki [nM] |
| --- | --- |
| Nc1ncc(-c2ccc(N3CCCC3)nc2)cc1-c1nnsc1-c1cccc(Cl)c1Cl [I-C-4] | 100 to 1000 |
| Nc1ncc(C2=CCN(CC3CCOC3)CC2)cc1-c1nnnn1-c1cccc(F)c1F (centres unmarked) [I-A-643] | 100 to 1000 |
| Nc1ncc(-c2cnn(CC3CCNC3)c2)cc1-c1nnnn1-c1cccc(F)c1F (centres unmarked) [I-A-501] | ≤ 100 |
| Nc1ncc(-c2ccc(N3CCCC3)nc2)cc1-c1nnnn1-c1cccc(Cl)c1Cl [I-A-82] | 100 to 1000 |
| CN(C)Cc1ccc(-c2cnc(N)c(-c3nnnn3-c3cccc(F)c3Cl)c2)cc1 [I-A-387] | 100 to 1000 |
| Nc1ncc(-c2ccc(CN3CCC(CO)CC3)cc2)cc1-c1nnnn1-c1cccc(Cl)c1Cl [I-A-96] | ≤ 100 |
| Nc1ncc(-c2cc3c(s2)CCNCC3)cc1-c1nnnn1-c1cccc(Cl)c1F [I-A-481] | ≤ 100 |
| Nc1ncc(-c2cnn(C3CCN(C(=O)N4CCCC4)CC3)c2)cc1-c1nnnn1-c1cccc(Cl)c1F [I-A-443] | ≤ 100 |
| CN(C)C1CCN(Cc2ccc(-c3cnc(N)c(-c4nnnn4-c4cccc(F)c4F)c3)cc2)C1 (centres unmarked) [I-A-147] | ≤ 100 |
| Nc1ncc(-c2cnn([C@H]3CCNC3)c2)nc1-c1nnnn1-c1cccc(F)c1F [I-A-536] | ≤ 100 |
| COc1c(F)cccc1-n1nnnc1-c1cc(-c2ccc(CN3CCCC3)cc2)cnc1N [I-A-604] | 100 to 1000 |
| CN(C)CCn1cc(-c2cnc(N)c(-c3nnnn3-c3cccc(Cl)c3Cl)c2)cn1 [I-A-410] | ≤ 100 |
| CN(C)Cc1ccc(-c2cnc(N)c(-c3nnsc3-c3cccc(Cl)c3Cl)c2)cc1 [I-C-5] | ≤ 100 |
| CC(=O)Nc1ccc(-c2cnc(N)c(-c3nnnn3-c3cccc(F)c3F)c2)cc1F [I-A-127] | ≤ 100 |
| Nc1ncc(-c2ccc(F)cc2)cc1-c1nncn1-c1cccc(F)c1F [I-A-112] | 100 to 1000 |
| CC(C)(C)CC(=O)Nc1ccc(-c2cnc(N)c(-c3nnnn3-c3cccc(F)c3F)c2)cc1 [I-A-199] | ≤ 100 |
| CCOC(=O)Cn1cc(-c2cnc(N)c(-c3nnnn3-c3cccc(F)c3F)c2)cn1 [I-A-345] | ≤ 100 |
| Nc1ncc(-c2cnn(CC(=O)N3CCCC3)c2)cc1-c1nnnn1-c1cccc(F)c1F [I-A-364] | 100 to 1000 |
| CN1CCN(c2ccc(-c3cnc(N)c(-c4nc5cc(F)ccc5n4-c4cccc(Cl)c4F)c3)cc2)CC1 [I-D-21] | 100 to 1000 |
| CCCS(=O)(=O)N1CCC(n2cc(-c3cnc(N)c(-c4nnnn4-c4cccc(Cl)c4F)c3)cn2)CC1 [I-A-446] | ≤ 100 |
| Nc1ncc(-c2cc(F)c(N)c(F)c2)cc1-c1nnnn1-c1cccc(F)c1F [I-A-303] | ≤ 100 |
| Nc1ncc(-c2cccnc2)nc1-c1nncn1-c1cc(Cl)ccc1F [I-A-34] | 100 to 1000 |
| CS(=O)(=O)Nc1cccc(-c2cnc(N)c(-c3nnnn3-c3cccc(F)c3F)c2)c1 [I-A-254] | ≤ 100 |
| CN(C)Cc1ccc(-c2cnc(N)c(-c3nnnn3-c3cccc(Cl)c3Cl)c2)cc1 [I-A-79] | ≤ 100 |
| Nc1ncc(C2=CCN(C(=O)CC3CC3)CC2)cc1-c1nnnn1-c1cccc(F)c1F [I-A-524] | ≤ 100 |

| Structure (SMILES) | Ki [nM] |
| --- | --- |
| CN1CCC(n2cc(-c3cnc(N)c(-c4nnnn4-c4cccc(Cl)c4F)c3)cn2)CC1 [I-A-436] | ≤ 100 |
| COc1ccc(-c2cnc(N)c(-c3nncn3-c3cccc(Cl)c3Cl)c2)cc1OC [I-A-77] | 100 to 1000 |
| CN(CCC#N)Cc1ccc(-c2cnc(N)c(-c3nnnn3-c3cccc(F)c3F)c2)cc1 [I-A-148] | ≤ 100 |
| Nc1ncc(-c2cnn(C3CCNCC3)c2)cc1-c1nnnn1-c1c(F)cccc1F [I-A-628] | ≤ 100 |
| Nc1ncc(-c2cn(C3CCNCC3)nn2)cc1-c1nnnn1-c1cccc(F)c1F [I-A-483, 3-(1-(2,3-Difluorophenyl)-1H-tetrazol-5-yl)-5-(1-(piperidin-4-yl)-1H-1,2,3-triazol-4-yl)pyridin-2-amine] | ≤ 100 |
| Nc1ncc(-c2cnc3[nH]ccc3c2)cc1-c1nnnn1-c1cccc(Cl)c1Cl [I-A-92] | ≤ 100 |
| CCNC(=O)Nc1nc2cc(OC)c(-c3cnc(N)c(-c4nnnn4-c4cccc(F)c4F)n3)cc2[nH]1 [I-A-55] | 100 to 1000 |
| CS(=O)(=O)Nc1ccc(-c2cnc(N)c(-c3nnnn3-c3cccc(F)c3F)c2)cc1 [I-A-353] | 100 to 1000 |
| CC(=O)Nc1cccc(-c2cnc(N)c(-c3nncn3-c3cccc(Cl)c3Cl)c2)c1 [I-A-73] | 100 to 1000 |
| CC(=O)N(C)c1ccc(-c2cnc(N)c(-c3nnnn3-c3cccc(F)c3F)c2)cc1 [I-A-337] | ≤ 100 |
| Nc1ncc(-c2cnn(C3CNC3)c2)cc1-c1nnnn1-c1cccc(Cl)c1F [I-A-650] | ≤ 100 |
| Nc1ncc(-c2ccc(N3CC(CO)OC3=O)cc2)cc1-c1nnnn1-c1cccc(F)c1F (centres unmarked) [I-A-372] | ≤ 100 |
| CC(C)C(=O)N1CCC(n2cc(-c3cnc(N)c(-c4nnnn4-c4cccc(Cl)c4F)c3)cn2)CC1 [I-A-441] | ≤ 100 |
| CN(C)Cc1ccc(-c2cnc(N)c(-c3nnnn3-c3cccc(F)c3F)c2)cn1 [I-A-154] | 100 to 1000 |
| CCNC(=O)Nc1nc2cc(-c3cnc(N)c(-c4nnnn4-c4cccc(Cl)c4Cl)c3)c(F)cc2[nH]1 [I-A-93] | 100 to 1000 |
| CN(C)Cc1ccc(-c2cnc(N)c(-c3nnnn3-c3c(F)cccc3Cl)c2)cc1 [I-A-623] | ≤ 100 |
| Nc1ncc(-c2cc3c(s2)CNCC3)cc1-c1nnnn1-c1cccc(F)c1F [I-A-492, 3-(1-(2,3-Difluorophenyl)-1H-tetrazol-5-yl)-5-(4,5,6,7-tetrahydrothieno[2,3-c]pyridin-2-yl)pyridin-2-amine] | ≤ 100 |
| CC(N)c1ccc(-c2cnc(N)c(-c3nnnn3-c3cccc(F)c3F)c2)cn1 (centres unmarked) [I-A-129] | ≤ 100 |
| Nc1ncc(-c2ccc(CN3CCN(Cc4ccncc4)CC3)cc2)cc1-c1nnnn1-c1cccc(Cl)c1Cl [I-A-105] | 100 to 1000 |
| Nc1ncc(-c2csc(C3CCNCC3)c2)cc1-c1nnnn1-c1cccc(F)c1F [I-A-463] | ≤ 100 |
| Nc1ncc(-c2ccc(C3CCNCC3)s2)cc1-c1nnnn1-c1cccc(Cl)c1Cl [I-A-416] | ≤ 100 |
| Nc1ncc(-c2ccc(C3CCNCC3)s2)cc1-c1nnnn1-c1cccc(Cl)c1F [I-A-532] | ≤ 100 |
| N#Cc1ccc(-c2cnc(N)c(-c3nncn3-c3cccc(F)c3F)c2)cc1 [I-A-113] | 100 to 1000 |
| Nc1ncc(-c2cn[nH]c2)cc1-c1nnnn1-c1cccc(F)c1F [I-A-366] | ≤ 100 |
| C[C@H](c1ccc(-c2cnc(N)c(-c3nnnn3-c3cccc(F)c3F)c2)cc1)N(C)C [I-A-152] | ≤ 100 |

| Structure (SMILES) | Ki [nM] |
| --- | --- |
| Cc1nc(-c2cc(-c3cccnc3)cnc2N)c(-c2cccc(Cl)c2Cl)o1 [I-C-6] | ≤ 100 |
| Nc1ncc(-c2ccccc2)cc1-c1nnnn1-c1cccc(F)c1F [I-A-233] | ≤ 100 |
| Cc1cccc(-c2cnc(N)c(-c3nnnn3-c3cccc(F)c3F)c2)c1 [I-A-242] | ≤ 100 |
| CN(C)Cc1ccc(-c2cnc(N)c(-c3nn(C4CCCCC4)cc3-c3cccc(Cl)c3Cl)c2)cc1 [I-B-11] | 100 to 1000 |
| Nc1ncc(-c2ccc(NC(=O)c3ccco3)cc2)cc1-c1nnnn1-c1cccc(F)c1F [I-A-162] | 100 to 1000 |
| Nc1ncc(C2=CCNCC2)cc1-c1nnnn1-c1cccc(F)c1F [I-A-525] | 100 to 1000 |
| Nc1ncc(-c2cnn(C3CCCCC3)c2)cc1-c1nnnn1-c1cccc(F)c1F [I-A-403] | ≤ 100 |
| Cn1cncc1-c1cnc(N)c(-c2nnnn2-c2cccc(F)c2F)c1 [I-A-496] | 100 to 1000 |
| NCc1cccc(-c2cnc(N)c(-c3nnnn3-c3cccc(Cl)c3Cl)c2)c1 [I-A-87] | ≤ 100 |
| Nc1ncc(-c2cnc(C3CCNCC3)s2)cc1-c1nnnn1-c1cccc(Cl)c1F [I-A-491] | ≤ 100 |
| CN(C)Cc1ccc(-c2cnc(N)c(-c3nnnn3-c3c(F)ccc(F)c3Cl)c2)cc1 [I-A-630] | ≤ 100 |
| CN(C)Cc1ccc(-c2cnc(N)c(-c3nnnn3-c3c(F)ccc(F)c3F)c2)cc1 [I-A-381] | ≤ 100 |
| Nc1ncc(-c2ccc(CN3CCCC3)cc2)cc1-n1nnnc1-c1cccc(F)c1F [I-E-4] | 100 to 1000 |
| Nc1ncc(-c2ccccc2F)cc1-c1nnnn1-c1cccc(F)c1F [I-A-313] | ≤ 100 |
| COc1cc(-c2cnc(N)c(-c3nnnn3-c3cccc(F)c3F)c2)ccc1O [I-A-299] | ≤ 100 |
| Nc1ncc(-c2cnn([C@@H]3CCNC3)c2)cc1-c1nnnn1-c1cccc(Cl)c1F [I-A-538] | ≤ 100 |
| Nc1ncc(-c2cccc(C(F)(F)F)c2)cc1-c1nnnn1-c1cccc(F)c1F [I-A-215] | 100 to 1000 |
| Nc1nc2cc(F)c(-c3cnc(N)c(-c4nncn4-c4cccc(F)c4F)n3)cc2[nH]1 [I-A-56] | ≤ 100 |
| CC(C)C(=O)Nc1ccc(-c2cnc(N)c(-c3nnnn3-c3cccc(F)c3F)c2)cc1 [I-A-193] | ≤ 100 |
| CC(=O)N1CCC(n2cc(-c3cnc(N)c(-c4nnnn4-c4cccc(Cl)c4F)c3)cn2)CC1 [I-A-399] | ≤ 100 |
| NC(=O)[C@@H]1CCCN1Cc1ccc(-c2cnc(N)c(-c3nnnn3-c3cccc(Cl)c3Cl)c2)cc1 [I-A-121] | ≤ 100 |
| COC(=O)[C@H](CC(C)C)NC(=O)Nc1ccc(-c2cnc(N)c(-c3nnnn3-c3cccc(F)c3F)c2)cc1 [I-A-330] | 100 to 1000 |
| CN1CCN(c2ccc(-c3cnc(N)c(-c4nnnn4-c4cccc(Cl)c4Cl)c3)cc2)CC1 [I-A-85] | ≤ 100 |
| CN(C)Cc1ccc(-c2cnc(N)c(-c3nnnn3-c3cccc(Cl)c3)c2)cc1 [I-A-358] | 100 to 1000 |
